Entries after “also recorded” stand apart in the source; their conditions may differ.
Experiments:
Assay type in all cases: physicochemical
[1] = Stability assessment of Pattern 5 slurried in solvents at 4 or 50° C.; conditions: for Solid form recovered in stability assessment: 4 and 50° C., 8 solvents including solvent mixtures, XRPD; for Observations Overnight at 4° C. maturation / Observations Overnight at 50° C. maturation: 16 h
Protocol: The aim of this set of experiments was to test the stability of Pattern 5 in different conditions by slurring the material at either 4 or 50° C. in a range of 8 selected solvents including mixtures.
The supplied material was dissolved or suspended in the chosen solvent at r.t. Solvents were added in 10 vol. aliquots up to 30 vol. and observations were recorded; if a solution was obtained at any point then no further additions were made. Samples were kept at 4° C. or 50° C. over 16 h, and analyzed by XRPD. The solids were filtered and analyzed by XRPD. The solutions were allowed to evaporate at r.t. to afford solids which were also analyzed by XRPD.

[2] = Storage stability of solid forms at elevated temperature/humidity (XRPD, HPLC purity); conditions: 25° C./97% RH, one week; listed as Crystalline Pattern 5
[3] = Variable temperature XRPD; conditions: 25-165° C.
Protocol: Samples run under non-ambient conditions were mounted on a silicon wafer with heat-conducting compound. The sample was then heated to the appropriate temperature at 30° C./min and subsequently held isothermally for 1 minute before data collection was initiated.

[4] = Gravimetric vapour sorption (GVS); conditions: for Hygroscopicity: GVS, 0-90% RH
Protocol: Sorption isotherms were obtained using a SMS DVS Intrinsic moisture sorption analyzer, controlled by DVS Intrinsic Control software. The sample temperature was maintained at 25° C. by instrument controls. The humidity was controlled by mixing streams of dry and wet nitrogen, with a total flow rate of 200 ml/min. The relative humidity was measured by a calibrated Rotronic probe (dynamic range of 1.0-100% RH), located near the sample. The weight change (mass relaxation) of the sample as a function of % RH was constantly monitored by the microbalance (accuracy ±0.005 mg). Typically 5-20 mg of sample was placed in a tared mesh stainless steel basket under ambient conditions. The sample was loaded and unloaded at 40% RH and 25° C. (typical room conditions). A moisture sorption isotherm was performed as outlined below (2 scans giving 1 complete cycle). The standard isotherm was performed at 25° C. at 10% RH intervals over a 0-90% RH range. Data analysis was carried out using Microsoft Excel. The sample was recovered after completion of the isotherm and re-analyzed by XRPD.

[5] = Storage stability of solid forms at elevated temperature/humidity (XRPD, HPLC purity); conditions: one week
Protocol: Purity analysis was performed on an Agilent HP1100 series system equipped with a diode array detector and using ChemStation software vB.04.03 using the method detailed in Table 1.
Amorphous (I) free acid was stored at 40° C./75% RH (open vial), 25° C./97% RH (open vial) and 60° C. (closed vial, ambient humidity) for 8 weeks.
Characterization by XRPD, ^1H NMR, TGA, DSC and storage at 40° C./75% RH for one week was carried out. Details are found in Table 10.

[6] = listed as Crystalline Pattern 5
[7] = EtOAc, solid after evaporation at r.t.
[8] = EtOAc/EtOH (1:3), solid after evaporation at r.t.
[9] = EtOAc/EtOH (3:1), solid after evaporation at r.t.

With O=C(O)c1cccc(C#Cc2ccc(COC3CCOCC3)cc2)c1-c1ccc2cc[nH]c2c1 [Pattern 5, 2-(1H-Indol-6-yl)-3-[4-(tetrahydro-pyran-4-yloxymethyl)-phenylethynyl]-benzoic acid] the “Solid form recovered in stability assessment” value [1] was “no change in solid form”, the “Solid form recovered in stability assessment” value [1, 6] was “Pattern 5 being recovered in all cases” and the “Observations Overnight at 4° C. maturation” value ([1]; EtOAc) was “solution”. For the same compound, the “XRPD after stability assessment at 4° C.” value [1, 7] was “Pattern 5”, the “Observations Overnight at 50° C. maturation” value ([1]; EtOAc) was “solution” and the “XRPD after stability assessment at 50° C.” value (from here on “XRPD … at 50° C.”) [1, 7] was “Pattern 5”. The “Observations Overnight at 4° C. maturation” value ([1]; EtOAc/EtOH (1:3)) was “solution”, the “XRPD after stability assessment at 4° C.” value [1, 8] was “Pattern 5” and the “Observations Overnight at 50° C. maturation” value ([1]; EtOAc/EtOH (1:3)) was “solution + yellow solid”. For the same compound, the “XRPD … at 50° C.” value [1, 8] was “Pattern 5”, the “Observations Overnight at 4° C. maturation” value ([1]; EtOAc/EtOH (3:1)) was “solution” and the “XRPD after stability assessment at 4° C.” value [1, 9] was “Pattern 5”. For the same compound, the “Observations Overnight at 50° C. maturation” value ([1]; EtOAc/EtOH (3:1)) was “solution + yellow solid”, the “XRPD … at 50° C.” value [1, 9] was “Pattern 5” and the “XRPD after stability assessment at 4° C.” value ([1]; EtOH) was “Pattern 5”. The “Observations Overnight at 4° C. maturation” value ([1]; EtOH) was “White Suspension”, the “Observations Overnight at 50° C. maturation” value ([1]; EtOH) was “solution” and the “XRPD … at 50° C.” value ([1]; EtOH, solid after evaporation at r.t.) was “Pattern 5”. The “XRPD after stability assessment at 4° C.” value ([1]; Heptane) was “Pattern 5”, the “Observations Overnight at 4° C. maturation” value ([1]; Heptane) was “White Suspension” and the “XRPD … at 50° C.” value ([1]; Heptane) was “Pattern 5”. For the same compound, the “Observations Overnight at 50° C. maturation” value ([1]; Heptane) was “White Suspension”, the “XRPD after stability assessment at 4° C.” value ([1]; IPA) was “Pattern 5” and the “Observations Overnight at 4° C. maturation” value ([1]; IPA) was “White Suspension”. The “Observations Overnight at 50° C. maturation” value ([1]; IPA) was “solution + yellow solid”, the “XRPD … at 50° C.” value ([1]; IPA, solid after evaporation at r.t.) was “Pattern 5” and the “XRPD after stability assessment at 4° C.” value ([1]; MIBK) was “Pattern 5”. The “Observations Overnight at 4° C. maturation” value ([1]; MIBK) was “Off-White Suspension”, the “Observations Overnight at 50° C. maturation” value ([1]; MIBK) was “solution” and the “XRPD … at 50° C.” value ([1]; MIBK, solid after evaporation at r.t.) was “Pattern 5”. For the same compound, the “XRPD after stability assessment at 4° C.” value ([1]; TBME) was “Pattern 5”, the “Observations Overnight at 4° C. maturation” value ([1]; TBME) was “White Suspension” and the “XRPD … at 50° C.” value ([1]; TBME) was “Pattern 5”. The “Observations Overnight at 50° C. maturation” value ([1]; TBME) was “White Suspension”, the “XRPD post 25° C./97% RH” value [2] was “No change in crystalline form; also recorded: Unchanged” and the “Variable temperature XRPD” value [3] was “remained as Pattern 5”. The “Variable temperature XRPD” value [3, 6] was “Remained as Pattern 5 from 25-165 °C”, the Hygroscopicity [4] was “non-hygroscopic” and the Hygroscopicity [4, 6] was “non-hygroscopic; also recorded: not hygroscopic”. For the same compound, the “XRPD after GVS” value ([4]; after 0-90% RH isotherm, listed as Crystalline Pattern 5) was “Unchanged by XRPD”, the GVS moisture uptake ([4]; between 0-90% RH, 25° C., listed as Crystalline Pattern 5) was 0.3% and the “XRPD post 25° C./97% RH” value ([5]; 25° C./97% RH) was “remained unchanged by XRPD”. The “HPLC Purity after storage at 25° C./97% RH (Pharmorphix generic method)” value ([5]; 25° C./97% RH, initial purity 98.3% A.U.C.) was 98.0 % A.U.C, the “XRPD post 40° C./75% RH” value ([5]; 40° C./75% RH) was “remained unchanged by XRPD” and the “HPLC Purity after storage at 40° C./75% RH (Pharmorphix generic method)” value ([5]; 40° C./75% RH, initial purity 98.3% A.U.C.) was 98.0 % A.U.C. For the same compound, the “XRPD post 40° C./75% RH” value ([5]; 40° C./75% RH, listed as Crystalline Pattern 5) was “No change in crystalline form; also recorded: Unchanged”.
